Measurements from US12435059B2, “AMP-activated protein kinase inhibitors and methods of making and using the same” (The Regents of the University of Colorado, priority 2019, dated 2025).
Where two headings read alike, the source gives them in different places.

Assays:
Assay in all cases: biochemical
Type in all cases: binding
468 kinases [1] = target: 468 kinases (Homo sapiens, UniProt P43405); details: SYK; read-out: % Inhibition @ 100 nM
468 kinases [2] = target: 468 kinases (Homo sapiens, UniProt Q8NE63); details: HIPK4; read-out: % Inhibition @ 100 nM
468 kinases [3] = target: 468 kinases (Homo sapiens, UniProt Q15349); details: read-out: % Inhibition @ 100 nM
468 kinases [4] = target: 468 kinases (Homo sapiens, UniProt Q9Y5S2); details: MRCKB; read-out: % Inhibition @ 100 nM
468 kinases [5] = target: 468 kinases (Homo sapiens, UniProt Q13237); details: PRKG2; read-out: % Inhibition @ 100 nM
468 kinases (Homo sapiens, UniProt Q13237), sequence (Q13237 2-762 limits assumed): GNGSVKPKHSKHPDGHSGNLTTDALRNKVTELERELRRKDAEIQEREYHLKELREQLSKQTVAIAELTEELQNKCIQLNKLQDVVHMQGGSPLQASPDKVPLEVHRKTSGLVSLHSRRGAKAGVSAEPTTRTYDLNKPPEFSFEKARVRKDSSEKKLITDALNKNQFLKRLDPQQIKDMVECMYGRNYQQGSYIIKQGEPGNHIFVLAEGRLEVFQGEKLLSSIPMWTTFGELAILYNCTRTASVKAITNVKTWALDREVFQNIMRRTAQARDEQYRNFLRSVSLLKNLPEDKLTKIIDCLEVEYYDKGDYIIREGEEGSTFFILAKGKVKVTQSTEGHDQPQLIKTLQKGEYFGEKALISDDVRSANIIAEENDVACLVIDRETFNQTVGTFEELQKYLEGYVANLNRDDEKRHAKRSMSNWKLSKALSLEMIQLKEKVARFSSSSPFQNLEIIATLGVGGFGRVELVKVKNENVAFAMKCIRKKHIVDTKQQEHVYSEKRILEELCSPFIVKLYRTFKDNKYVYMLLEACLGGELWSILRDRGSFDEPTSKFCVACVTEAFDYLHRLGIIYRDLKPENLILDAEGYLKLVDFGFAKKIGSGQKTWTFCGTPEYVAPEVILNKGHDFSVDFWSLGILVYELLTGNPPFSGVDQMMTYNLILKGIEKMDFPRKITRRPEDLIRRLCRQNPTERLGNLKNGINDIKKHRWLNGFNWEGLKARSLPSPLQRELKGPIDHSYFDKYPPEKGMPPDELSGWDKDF

468 kinases [6] = target: 468 kinases (Homo sapiens, UniProt P11802); details: read-out: % Inhibition @ 100 nM
468 kinases (Homo sapiens, UniProt P11802), sequence (P11802 2-303 limits assumed): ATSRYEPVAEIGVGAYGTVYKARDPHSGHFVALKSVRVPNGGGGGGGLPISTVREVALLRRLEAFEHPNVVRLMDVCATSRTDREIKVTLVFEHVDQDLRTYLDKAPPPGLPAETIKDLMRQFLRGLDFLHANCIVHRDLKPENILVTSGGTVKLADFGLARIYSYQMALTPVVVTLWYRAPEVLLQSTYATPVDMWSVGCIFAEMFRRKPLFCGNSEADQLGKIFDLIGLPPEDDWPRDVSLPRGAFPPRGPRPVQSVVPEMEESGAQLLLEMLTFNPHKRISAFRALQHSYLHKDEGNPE

468 kinases [7] = target: 468 kinases (Homo sapiens, UniProt P08581, Y1235D); details: MET(Y1235D); read-out: % Inhibition @ 100 nM
468 kinases (Homo sapiens, UniProt P08581, Y1235D), sequence (P08581 25-1390 Y1235D limits assumed): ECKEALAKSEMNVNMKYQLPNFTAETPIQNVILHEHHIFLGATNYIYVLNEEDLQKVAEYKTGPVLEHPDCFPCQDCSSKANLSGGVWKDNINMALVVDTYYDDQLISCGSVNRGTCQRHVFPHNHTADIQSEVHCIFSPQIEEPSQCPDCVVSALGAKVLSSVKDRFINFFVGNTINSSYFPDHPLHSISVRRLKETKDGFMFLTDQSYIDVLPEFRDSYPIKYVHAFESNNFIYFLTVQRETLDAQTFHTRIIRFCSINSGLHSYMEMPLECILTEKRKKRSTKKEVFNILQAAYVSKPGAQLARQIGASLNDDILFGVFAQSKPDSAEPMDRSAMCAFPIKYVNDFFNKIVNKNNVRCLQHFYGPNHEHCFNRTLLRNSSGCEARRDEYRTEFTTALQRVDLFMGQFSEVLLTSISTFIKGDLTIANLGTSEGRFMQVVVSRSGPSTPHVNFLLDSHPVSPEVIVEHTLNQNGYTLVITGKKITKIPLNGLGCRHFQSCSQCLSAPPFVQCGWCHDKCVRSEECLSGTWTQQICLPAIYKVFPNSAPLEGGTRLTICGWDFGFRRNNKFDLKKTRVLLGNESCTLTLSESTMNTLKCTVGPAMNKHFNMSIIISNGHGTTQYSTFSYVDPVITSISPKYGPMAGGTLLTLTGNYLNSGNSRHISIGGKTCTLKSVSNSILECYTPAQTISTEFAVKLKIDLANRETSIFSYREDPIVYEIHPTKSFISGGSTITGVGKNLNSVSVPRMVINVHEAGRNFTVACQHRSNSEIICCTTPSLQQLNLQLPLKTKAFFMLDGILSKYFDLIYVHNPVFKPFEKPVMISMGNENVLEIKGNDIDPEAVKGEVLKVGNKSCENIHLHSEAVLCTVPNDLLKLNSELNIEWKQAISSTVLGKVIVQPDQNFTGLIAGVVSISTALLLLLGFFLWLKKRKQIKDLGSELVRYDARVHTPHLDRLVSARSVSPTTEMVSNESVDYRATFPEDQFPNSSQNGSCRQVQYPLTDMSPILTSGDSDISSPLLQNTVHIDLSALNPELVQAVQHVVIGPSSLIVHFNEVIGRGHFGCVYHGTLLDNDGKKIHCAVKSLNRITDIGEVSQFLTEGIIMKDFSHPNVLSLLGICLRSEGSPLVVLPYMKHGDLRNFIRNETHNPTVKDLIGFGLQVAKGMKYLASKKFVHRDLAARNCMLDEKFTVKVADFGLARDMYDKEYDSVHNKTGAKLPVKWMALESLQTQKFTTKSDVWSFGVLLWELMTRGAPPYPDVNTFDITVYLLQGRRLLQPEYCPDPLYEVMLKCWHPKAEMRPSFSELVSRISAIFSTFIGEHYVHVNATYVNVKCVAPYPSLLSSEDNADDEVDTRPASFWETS

468 kinases [8] = target: 468 kinases (Homo sapiens, UniProt P53779); details: JNK3; read-out: % Inhibition @ 100 nM
468 kinases [9] = target: 468 kinases (Homo sapiens, UniProt O15530); details: PDPK1; read-out: % Inhibition @ 100 nM
468 kinases [10] = target: 468 kinases (Homo sapiens, UniProt P51813); details: BMX; read-out: % Inhibition @ 100 nM
468 kinases [11] = target: 468 kinases (Homo sapiens, UniProt Q9Y6E0); details: MST3; read-out: % Inhibition @ 100 nM
468 kinases [12] = target: 468 kinases (Homo sapiens, UniProt Q00536); details: PCTK1; read-out: % Inhibition @ 100 nM
468 kinases [13] = target: 468 kinases (Homo sapiens, UniProt P25098); details: GRK2; read-out: % Inhibition @ 100 nM
468 kinases [14] = target: 468 kinases (Homo sapiens, UniProt O15146); details: MUSK; read-out: % Inhibition @ 100 nM
468 kinases (Homo sapiens, UniProt O15146), sequence (O15146 24-869 limits assumed): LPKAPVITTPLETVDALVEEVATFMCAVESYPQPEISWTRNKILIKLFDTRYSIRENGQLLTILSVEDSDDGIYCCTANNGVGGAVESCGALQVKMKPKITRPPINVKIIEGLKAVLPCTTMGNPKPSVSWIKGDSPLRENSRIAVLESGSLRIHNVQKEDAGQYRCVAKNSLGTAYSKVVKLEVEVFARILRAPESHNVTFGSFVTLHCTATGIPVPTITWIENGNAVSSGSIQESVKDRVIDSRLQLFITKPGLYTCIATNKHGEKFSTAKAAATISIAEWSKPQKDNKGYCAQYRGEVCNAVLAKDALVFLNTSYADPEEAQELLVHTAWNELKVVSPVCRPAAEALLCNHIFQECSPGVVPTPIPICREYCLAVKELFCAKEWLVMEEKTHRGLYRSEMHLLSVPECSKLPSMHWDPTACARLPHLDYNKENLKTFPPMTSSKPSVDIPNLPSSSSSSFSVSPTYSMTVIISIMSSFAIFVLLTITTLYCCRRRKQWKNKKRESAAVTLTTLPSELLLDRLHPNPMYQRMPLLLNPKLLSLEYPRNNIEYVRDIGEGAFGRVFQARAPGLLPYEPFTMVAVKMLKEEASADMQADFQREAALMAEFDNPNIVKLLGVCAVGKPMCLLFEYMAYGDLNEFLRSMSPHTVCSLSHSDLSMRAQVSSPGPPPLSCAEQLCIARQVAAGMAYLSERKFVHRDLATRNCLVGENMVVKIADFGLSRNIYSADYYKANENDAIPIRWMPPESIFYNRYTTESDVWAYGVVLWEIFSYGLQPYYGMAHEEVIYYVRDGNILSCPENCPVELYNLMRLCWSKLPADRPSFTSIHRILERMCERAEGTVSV

468 kinases [15] = target: 468 kinases (Homo sapiens, UniProt P48730); details: CSNK1D; read-out: % Inhibition @ 100 nM
468 kinases [16] = target: 468 kinases (Homo sapiens, UniProt Q92918); details: HPK1; read-out: % Inhibition @ 100 nM
468 kinases [17] = target: 468 kinases (Homo sapiens, UniProt O60331); details: PIPSK1C; read-out: % Inhibition @ 100 nM
468 kinases [18] = target: 468 kinases (Homo sapiens, UniProt Q92630); details: DYRK2; read-out: % Inhibition @ 100 nM
468 kinases [19] = target: 468 kinases (Homo sapiens, UniProt P15056); details: BRAF; read-out: % Inhibition @ 100 nM
468 kinases (Homo sapiens, UniProt P15056), sequence (P15056 2-766 limits assumed): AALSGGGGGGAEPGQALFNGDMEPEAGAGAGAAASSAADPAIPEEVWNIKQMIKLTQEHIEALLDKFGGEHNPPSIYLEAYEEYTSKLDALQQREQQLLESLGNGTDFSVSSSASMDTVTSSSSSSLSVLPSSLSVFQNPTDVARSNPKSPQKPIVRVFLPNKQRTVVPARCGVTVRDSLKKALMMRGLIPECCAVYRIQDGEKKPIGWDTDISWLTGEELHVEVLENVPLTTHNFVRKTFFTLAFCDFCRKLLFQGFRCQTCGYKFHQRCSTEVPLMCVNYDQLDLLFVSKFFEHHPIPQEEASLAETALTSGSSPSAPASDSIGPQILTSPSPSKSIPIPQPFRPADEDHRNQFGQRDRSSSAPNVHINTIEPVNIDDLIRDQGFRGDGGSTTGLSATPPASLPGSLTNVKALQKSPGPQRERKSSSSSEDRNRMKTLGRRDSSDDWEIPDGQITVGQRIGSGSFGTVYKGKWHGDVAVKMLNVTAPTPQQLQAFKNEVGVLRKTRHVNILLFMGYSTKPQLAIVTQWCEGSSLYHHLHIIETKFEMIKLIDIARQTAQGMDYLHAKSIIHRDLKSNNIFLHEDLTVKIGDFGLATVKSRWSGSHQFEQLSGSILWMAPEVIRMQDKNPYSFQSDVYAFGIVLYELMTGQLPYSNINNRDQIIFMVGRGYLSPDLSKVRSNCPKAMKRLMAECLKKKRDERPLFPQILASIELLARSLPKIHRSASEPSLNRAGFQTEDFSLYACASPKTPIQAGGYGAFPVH

468 kinases [20] = target: 468 kinases (Homo sapiens, UniProt P42345); details: MTOR; read-out: % Inhibition @ 100 nM
468 kinases [21] = target: 468 kinases (Homo sapiens, UniProt P11309); details: PIM1; read-out: % Inhibition @ 100 nM
468 kinases [22] = target: 468 kinases (Homo sapiens, UniProt P49840); details: GSK3A; read-out: % Inhibition @ 100 nM
468 kinases (Homo sapiens, UniProt P49840), sequence (P49840 2-483 limits assumed): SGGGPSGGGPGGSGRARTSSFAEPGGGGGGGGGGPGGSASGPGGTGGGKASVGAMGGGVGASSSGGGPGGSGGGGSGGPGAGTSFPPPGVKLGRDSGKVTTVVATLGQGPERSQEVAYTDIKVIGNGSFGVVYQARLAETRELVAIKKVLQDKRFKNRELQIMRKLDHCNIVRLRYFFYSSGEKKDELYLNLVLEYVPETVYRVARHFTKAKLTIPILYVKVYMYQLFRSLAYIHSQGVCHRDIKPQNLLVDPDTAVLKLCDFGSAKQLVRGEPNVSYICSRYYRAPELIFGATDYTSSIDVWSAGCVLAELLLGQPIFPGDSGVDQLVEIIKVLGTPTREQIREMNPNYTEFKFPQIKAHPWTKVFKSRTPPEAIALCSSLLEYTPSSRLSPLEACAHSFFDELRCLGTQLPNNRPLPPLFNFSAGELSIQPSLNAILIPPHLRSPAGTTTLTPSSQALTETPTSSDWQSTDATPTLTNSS

468 kinases [23] = target: 468 kinases (Homo sapiens, UniProt P06213); details: INSR; read-out: % Inhibition @ 100 nM
468 kinases [24] = target: 468 kinases (Homo sapiens, UniProt Q9H3Y6); details: SRMS; read-out: % Inhibition @ 100 nM
468 kinases [25] = target: 468 kinases (Homo sapiens, UniProt P36896); details: ACVR1B; read-out: % Inhibition @ 100 nM
468 kinases (Homo sapiens, UniProt P36896), sequence (P36896 24-505 limits assumed): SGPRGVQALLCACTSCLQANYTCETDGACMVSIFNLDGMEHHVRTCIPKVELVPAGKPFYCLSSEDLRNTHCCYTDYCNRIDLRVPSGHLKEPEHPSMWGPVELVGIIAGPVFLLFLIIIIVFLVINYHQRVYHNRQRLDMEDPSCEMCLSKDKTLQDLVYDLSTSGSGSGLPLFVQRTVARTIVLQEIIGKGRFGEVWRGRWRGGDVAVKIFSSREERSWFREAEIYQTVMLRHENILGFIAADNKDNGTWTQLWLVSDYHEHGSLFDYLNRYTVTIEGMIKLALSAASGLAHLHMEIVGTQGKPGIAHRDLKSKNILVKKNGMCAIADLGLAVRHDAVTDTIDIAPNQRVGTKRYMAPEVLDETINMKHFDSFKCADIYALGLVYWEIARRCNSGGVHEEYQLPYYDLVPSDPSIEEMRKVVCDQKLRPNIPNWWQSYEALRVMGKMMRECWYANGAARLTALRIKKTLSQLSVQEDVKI

468 kinases [26] = target: 468 kinases (Homo sapiens, UniProt P08069); details: IGFIR; read-out: % Inhibition @ 100 nM
468 kinases [27] = target: 468 kinases (Homo sapiens, UniProt Q9P1W9); details: PIM2; read-out: % Inhibition @ 100 nM
468 kinases [28] = target: 468 kinases (Homo sapiens, UniProt Q9NY57); details: YANK2; read-out: % Inhibition @ 100 nM
468 kinases [29] = target: 468 kinases (Homo sapiens, UniProt Q9UQ88); details: CDC2L2; read-out: % Inhibition @ 100 nM
468 kinases [30] = target: 468 kinases (Homo sapiens, UniProt Q9UL54); details: TAOK2; read-out: % Inhibition @ 100 nM
468 kinases [31] = target: 468 kinases (Homo sapiens, UniProt P42336, C420R); details: PIK3CA(C420R); read-out: % Inhibition @ 100 nM
468 kinases [32] = target: 468 kinases (Homo sapiens, UniProt Q96J92); details: WNK4; read-out: % Inhibition @ 100 nM
468 kinases [33] = target: 468 kinases (Homo sapiens, UniProt Q02779); details: MLK2; read-out: % Inhibition @ 100 nM

Compound | inhibition at 0.1 µM (468 kinases [1]) | inhibition at 0.1 µM (468 kinases [2]) | inhibition at 0.1 µM (468 kinases [3]; RSK3(Kin.Dom.1-N-terminal)) | inhibition at 0.1 µM (468 kinases [3]; RSK3(Kin.Dom.2-C-terminal)) | inhibition at 0.1 µM (468 kinases [4]) | inhibition at 0.1 µM (468 kinases [5]) | inhibition at 0.1 µM (468 kinases [6]; CDK4-cyclinD1) | inhibition at 0.1 µM (468 kinases [6]; CDK4-cyclinD3) | inhibition at 0.1 µM (468 kinases [6]; CDK4) | inhibition at 0.1 µM (468 kinases [7]) | inhibition at 0.1 µM (468 kinases [8]) | inhibition at 0.1 µM (468 kinases [9]) | inhibition at 0.1 µM (468 kinases [10]) | inhibition at 0.1 µM (468 kinases [11]) | inhibition at 0.1 µM (468 kinases [12]) | inhibition at 0.1 µM (468 kinases [13]) | inhibition at 0.1 µM (468 kinases [14]) | inhibition at 0.1 µM (468 kinases [15]) | inhibition at 0.1 µM (468 kinases [16]) | inhibition at 0.1 µM (468 kinases [17]) | further results
CCN(CC)CCNC(=O)c1c(C)[nH]c(/C=C2\C(=O)Nc3ccc(CCO)cc32)c1C [Compound No. 10, (Z)—N-(2-(Diethylamino)ethyl)-5-((5-(2-hydroxyethyl)-2-oxoindolin-3-ylidene)methyl)-2,4-dimethyl-1H-pyrrole-3-carboxamide] | 16% | 28% | 13% | 0% | 0% | 0% | 5% | 0% | 0% | 4% | 0% | 11% | 11% | 20% | 0% | 0% | 28% | 29% | 96.6% | 32% | inhibition at 0.1 µM (468 kinases [18]): 18%; inhibition at 0.1 µM (468 kinases [19]): 2%; inhibition at 0.1 µM (468 kinases [20]): 0%; inhibition at 0.1 µM (468 kinases [21]): 0%; inhibition at 0.1 µM (468 kinases [22]): 3%; inhibition at 0.1 µM (468 kinases [23]): 0%; inhibition at 0.1 µM (468 kinases [24]): 13%; inhibition at 0.1 µM (468 kinases [25]): 0%; inhibition at 0.1 µM (468 kinases [26]): 0%; inhibition at 0.1 µM (468 kinases [27]): 8%; inhibition at 0.1 µM (468 kinases [28]): 1%; inhibition at 0.1 µM (468 kinases [29]): 1%; inhibition at 0.1 µM (468 kinases [30]): 18%; inhibition at 0.1 µM (468 kinases [31]): 0%; inhibition at 0.1 µM (468 kinases [32]): 0%; inhibition at 0.1 µM (468 kinases [33]): 18%
CCN(CC)CCNC(=O)c1c(C)[nH]c(/C=C2\C(=O)Nc3ccc(CCC(N)=O)cc32)c1C [Compound No. 16, (Z)-5-((5-(3-Amino-3-oxopropyl)-2-oxoindolin-3-ylidene)methyl)-N-(2-(diethylamino)ethyl)-2,4-dimethyl-1H-pyrrole-3-carboxamide] | 0% | 57% | 7% | 19% | 15% | 36% | 29% | 16% | 9% | 0% | 55% | 3% | 8% | 19% | 19% | 48% | 15% | 9% | 95.2% | 15% | inhibition at 0.1 µM (468 kinases [18]): 34%; inhibition at 0.1 µM (468 kinases [19]): 11%; inhibition at 0.1 µM (468 kinases [20]): 6%; inhibition at 0.1 µM (468 kinases [21]): 0%; inhibition at 0.1 µM (468 kinases [22]): 10%; inhibition at 0.1 µM (468 kinases [23]): 25%; inhibition at 0.1 µM (468 kinases [24]): 27%; inhibition at 0.1 µM (468 kinases [25]): 0%; inhibition at 0.1 µM (468 kinases [26]): 6%; inhibition at 0.1 µM (468 kinases [27]): 0%; inhibition at 0.1 µM (468 kinases [28]): 0%; inhibition at 0.1 µM (468 kinases [29]): 13%; inhibition at 0.1 µM (468 kinases [30]): 21%; inhibition at 0.1 µM (468 kinases [31]): 31%; inhibition at 0.1 µM (468 kinases [32]): 55%; inhibition at 0.1 µM (468 kinases [33]): 7%
